Data as given in patent US20130253058A1, “SATIETY-INDUCING COMPOSITION” (DSM IP ASSETS B.V., priority 2009, published 2013).
Like-named read-outs stand apart in the source and are kept apart here.

Conditions: 3.5 % lipids in yoghurt
Experimental: Analogous to example 2 four yoghurts with 3.5% fat (lipids) were followed during transit in the TNO intestinal Model (TIM).
The digestion process in the model was monitored for 5 hours. During the first 3 hours, the gastric content was gradually delivered into the small intestine via the Pyloric valve. At the end of the experiment, approximately 80% of the small intestine content was gradually delivered into the Large intestine via the Ileocecal valve.
Gastric secretions consisted of pepsin from porcine gastric mucosa (EC 3.4.23.1; Sigma-Aldrich Canada) and lipase (EC 3.1.1.3, from Rhizopus oryzae, Amano Pharmaceuticals, Japan), both dissolved in a Gastric Electrolyte Solution (GES: 3.1 g/l NaCl; 1.1 g/l KCl; 0.15 g/l CaCl2; 0.6 g/l NaHCO3). At the beginning of the experiment, a solution of trypsin from porcine pancreas (EC 3.4.21.4; Sigma-Aldrich Canada) was directly introduced into the duodenum. Also, porcine bile extract (supernatant of centrifuged, thawed bile from frozen, fresh collected porcine bile); pancreatic solution (Pancrex V powder; Paines and Byrne, UK), and intestine electrolyte solution (5.0 g/l NaCl; 0.6 g/l KCl; 0.3 g/l CaCl2 at pH 7.0) were delivered in the duodenal compartment.
Prior to testing the yoghurt containers were gently shaken to homogenise contents. At the beginning of each experiment, a 270 g amount of yoghurt was introduced into the gastric (i.e. stomach)—compartment of the TIM. At specific intervals samples were taken from different compartments of the gastro-intestinal tract (Gastric-; jejunum- and ileum lumen). A selection of fresh lumen samples were also directly visually studied by Bright Field microscope (Leica ATC2000 Binocular Microscope), equipped with a phase contrast mode.
The profile of the free fatty acid part of the lipid composition (FFA analysis) was determined by a method developed by the NIZO.
The free fatty acid level for all fatty acids in the ileum as well as the saturated fatty acid (FA) fraction C16:0 and C18:0 and higher in the ileum lumen were determined using FFA method as described above.

CCCCCCCCCCCCCCCC(=O)O [Palmitic acid]
Total FFA levels in the ileum lumen (1 h): 171.5 g FFA/kg dry matter | saturated FFA (C16:0 + C18:0 + C20:0) based on total FFA in the ileum lumen (1 h): 91.4 w/w % | Total FFA levels in the ileum lumen (2 h): 348.3 g FFA/kg dry matter | saturated FFA (C16:0 + C18:0 + C20:0) based on total FFA in the ileum lumen (2 h): 96.6 w/w % | Total FFA levels in the ileum lumen (3 h): 504.8 g FFA/kg dry matter | saturated FFA (C16:0 + C18:0 + C20:0) based on total FFA in the ileum lumen (3 h): 97.8 w/w % | Total FFA levels in the ileum lumen (4 h): 461.6 g FFA/kg dry matter | saturated FFA (C16:0 + C18:0 + C20:0) based on total FFA in the ileum lumen (4 h): 97.5 w/w % | Total FFA levels in the ileum lumen (5 h): 466.2 g FFA/kg dry matter | saturated FFA (C16:0 + C18:0 + C20:0) based on total FFA in the ileum lumen (5 h): 97.6 w/w %
